Measured values as given in US11510964B2, “Macrocyclic peptides to decrease c-Myc protein levels and reduce cancer cell growth” (University of Kansas, priority 2017, dated 2022).
Non-standard residues stand in square brackets, D forms with d. Residues, ends and D or L forms follow the SMILES beside them.

Experiments:
[1] = tested on: c-Myc protein levels in PC-3 cells; test: Western blot analysis of cellular c-Myc protein levels; type: cell-based, human
Method: Cells were seeded in 6 well plates at a density of 1×10^5 cells/well and grown to 75% confluence. Cells were treated with [D-Trp]CJ-15,208 at the indicated concentrations. Cells were then harvested as described above, and the cell pellets lysed in RIPA buffer consisting of 10 mM Tris HCl, pH 8.0, 150 mM NaCl, 1 mM EDTA, 1% Triton-X-100, 0.1% SDS, 1% sodium deoxycholate, and a protease inhibitor cocktail #P8340 (Sigma). Cell lysates were centrifuged at 13×1000 rpm for 15 min and the supernatants collected. The total protein concentration was measured in cell lysates using the standard Bradford assay. SDS gel electrophoresis was performed using 4-20% polyacrylamide gel (BioRad). Western blot analysis was performed using the following antibodies: i) c-Myc #5605 (rabbit monoclonal, 1:2000 dilution, (Cell Signaling Technologies)); actin #A2228 (mouse monoclonal, 1:5000 dilution (Sigma)), PP2A #610555 (mouse monoclonal 1:5000 dilution, BD Biosciences), p-PP2A #1155-1 (rabbit polyclonal, 1:5000 dilution (Epitomics)), Erk #9107 (mouse monoclonal, 1:2000 dilution (Cell Signaling Technologies) and p-Erk #4376 (rabbit monoclonal, 1:2000 (Cell Signaling Technologies)); Akt #2920 (mouse monoclonal, 1:2000 dilution (Cell Signaling Technologies)), p-Akt #4056 (rabbit monoclonal, 1:2000 (Cell Signaling Technologies)). The secondary antibodies, goat-anti-mouse #116-035-003 and goat-anti-rabbit #111-035-003, were obtained from Jackson ImmunoResearch Laboratory. Signal densities of the protein bands were determined using ImageJ software (NIH) and normalized to the internal loading control (actin).

[2] = tested on: transfected HEK-293 cells; test: c-Myc overexpression, Annexin V-APC/PI apoptosis assay; type: cell-based, human; conditions: 10 μM, 48 h
Method: The extent of apoptosis was analyzed by detecting surface expression of phosphatidylserine on apoptotic cells using an Annexin V-APC/PI dual staining apoptosis detection kit I (BD Biosciences) according to the manufacturer's protocol. Following treatment of PC-3 cells with 10 μM [D-Trp]CJ-15,208 or vehicle for 24 h or 48 h, the cells were collected, washed twice with cold PBS, and resuspended in 1× binding buffer at a concentration of 1×10^6 cells/mL. Cell suspension (100 μL) was transferred to a 5 ml culture tube, and 5 μL of Annexin V-APC and 25 μL of PI (50 μg/mL) were added. The cells were incubated for 15 min at room temperature in the dark with gentle vortexing, 400 μL of 1× binding buffer was then added to each sample, and the samples were analyzed using a Beckman-Coulter MoFlo XDP flow cytometer within one hour. The number of viable, apoptotic and necrotic cells were quantified using FlowJo v10.0.7. The apoptosis fraction (%) was calculated as (number of apoptotic cells/the number of total cells observed)×100%.^38
Forced expression of c-Myc in HEK 293 cells was performed using X-temeGENE HP #6366244001 (Sigma). Cells were cultured in antibiotic free DMEM supplemented with 10% FBS and transfected with pcDNA3-HA-HA-c-Myc #74164 (Addgene). Empty-vector pcDNA3-EV was used as a control. […] Samples were analyzed using a BD FACSCanto-II cell analyzer and quantified in FlowJo v10.2. […]

[3] = mice, after systemic administration; cited from earlier work
BPH-1 cells = test: Cell viability assay (Trypan Blue); type: cell-based; conditions: BPH-1 normal prostate cells, 1-40 μM, 48 h
Method: The viability of prostate cancer cells was determined using Trypan Blue (Sigma) per the manufacturer's instructions. Cells were grown in 6 well plates to a density of 1×10^5 cells/well to 75% confluency and treated with compound in 0.5% DMSO at the indicated concentrations for 24-72 h, with 0.5% DMSO as the vehicle control. After treatment, the cell media from each well was collected. The cells were washed with phosphate buffer saline (PBS), trypsinized, and collected. All of the cells, combined media, and washes were centrifuged at 250×g for 5 min. The supernatant was discarded, and the cell pellet was resuspended in 500 μL PBS. Trypan blue (10 μL) was added to 100 μL of resuspended cells, and the solution incubated for 10 min. The cell number in 10 μL was then counted using a hematocytometer. Viable cells (not stained) were distinguished from dead cells (colored blue) and the % viable cells calculated as follows: [(number of white cells)/(number of total cells (white+blue))]*100 and compared with untreated cells.^16

O=C1N[C@H](Cc2c[nH]c3ccccc23)C(=O)N[C@@H](Cc2ccccc2)C(=O)N2CCC[C@@H]2C(=O)N[C@H]1Cc1ccccc1 [[D-Trp]CJ-15,208, cyclo[Phe-D-Pro-Phe-D-Trp]] (cyclo(F[dP]F[dW]))
decrease of cellular c-Myc protein levels ([1]; 50 μM (FIG. 1E lanes 4 and 5)): 5 fold
reduction of c-Myc protein levels ([1]; PC-3 cells, 10 μM, 48 h): approximately 50%
early apoptosis ([2]; HEK-293 overexpressing c-Myc): significant increase in early apotosis
early apoptosis ([2]; HEK-293 transfected with empty vector): no significant difference
blood-brain barrier penetration [3]: appear to penetrate the blood-brain barrier
cell death (Trypan blue) (BPH-1 cells): no evidence of cell death
